According to patent US20180072675A1, “ANTIMICROBIAL PYRIDINOHYDRAZIDE AND HYDRAZOMETHYLPYRIDINE-BASED AGENTS” (Board of Supervisors of Louisiana State University and …, priority 2015, published 2018):
In brackets after ≈: the same amount, converted by molar mass.

How the values were obtained:
[1] = test system: C. albicans clinical isolate 17 (TW17); experiment: MIC80 fungal growth inhibition, clinical isolate TW17; type: cell-based, Candida albicans; conditions: Azole-resistant, >80% growth inhibition, visual scoring; for MIC80: Candida albicans, read-out: MIC80 TW17
Protocol: (§1) The antifungal activity of the pyridinohydrazide and hydrazomethylpyridine derivatives described in the s were evaluated in vitro using Candida albicans (ATCC Accession No. 10231) and Candida glabrata (ATCC Accession No. 48435). In addition, the compounds were evaluated for activity against two previously-described clinical isolates of C. albicans known to have developed azole-resistance. These isolates were obtained over a two year period from a single AIDS patient and the development of the azole-resistance mechanisms have been extensively characterized (White T C. Antimicrob. Agents Chemother. (1997) 41: 1482-1487). MIC assays were performed on the clinical isolates 1 and 17 (annotated TW1 and TW17, respectively), where isolate 1 was used as an azole-susceptible control and isolate 17 was considered azole-resistant. All assays were done in accordance with NCCLS reference documents (Clinical Laboratory and Standards Institute. Reference method for Broth Dilution Antifungal Susceptibility Testing of Yeasts: Approved Standard. M27-A3 2010; 28). The results of these screenings are summarized in Tables 1-9 (Examples 20-27) as the minimum concentrations that inhibited more than 80% of fungal growth (MIC80) as compared to positive controls containing 1% DMSO. Assays were performed in HEPES-buffered RPMI-1640 media. All MIC screens used a visual scoring method as opposed to spectroscopic analysis, due to the altered absorbance spectra of many of the compounds.

[2] = test system: C. albicans clinical isolate 1 (TW1); experiment: MIC80 fungal growth inhibition, clinical isolate TW1; type: cell-based, Candida albicans; conditions: Azole-susceptible, >80% growth inhibition, visual scoring; for MIC80: Candida albicans, read-out: MIC80 TW1
Protocol: as §1

[3] = test system: Candida glabrata (ATCC Accession No. 48435); experiment: MIC80 fungal growth inhibition, C. glabrata ATCC 48435; type: cell-based; conditions: for MIC80: Nakaseomyces glabratus, ATCC48435, read-out: MIC80 C. glabrata ATCC No. 48435; for MIC80 / MIC80 C. glabrata ATCC No. 48435: Azole-resistant, >80% growth inhibition, visual scoring
Protocol: as §1

[4] = test system: Candida albicans (ATCC Accession No. 10231); experiment: MIC80 fungal growth inhibition, C. albicans ATCC 10231; type: cell-based; conditions: Azole-susceptible, >80% growth inhibition, visual scoring; for MIC80: Candida albicans, ATCC10231, read-out: MIC80 C. albicans ATCC No. 10231
Protocol: as §1

SMILES | MIC80 [1] [µg/mL] | MIC80 [2] [µg/mL] | MIC80 [3] [µg/mL] | MIC80 [4] [µg/mL] | MIC80 TW17 [1] [µg/mL] | MIC80 TW1 [2] [µg/mL] | MIC80 C. glabrata ATCC No. 48435 [3] [µg/mL] | MIC80 C. albicans ATCC No. 10231 [4] [µg/mL] | potency against Candida glabrata (in words) [3]
O=C(N/N=C/c1ccccc1O)c1cccnc1 [AR7] | 31 (≈ 128 µM) | 4 (≈ 16.6 µM) | 16 (≈ 66.3 µM) | 4 (≈ 16.6 µM) |  |  |  |  | 
Cc1ccc(O)c(/C=N/NC(=O)c2cccnc2O)c1 [AR20] |  |  | 2 (≈ 7.37 µM) |  |  |  |  |  | 
Cc1ccc(O)c(C=NNC(=O)c2ccc[n+]([O-])c2)c1 [AR24] |  |  |  |  | 16 (≈ 59 µM) | 16 (≈ 59 µM) | 31 (≈ 114 µM) | 16 (≈ 59 µM) | 
O=C(NN=Cc1ccccn1)c1ccccc1 [AR31] |  |  |  |  | 62 (≈ 275 µM) | 31 (≈ 138 µM) | 62 (≈ 275 µM) | 62 (≈ 275 µM) | 
O=C(N/N=C/c1ccccc1O)c1ccccn1 [AR1, (E)-N′-(2-hydroxybenzylidene)picolinohydrazide] |  | 62 (≈ 257 µM) | 8 (≈ 33.2 µM) | 16 (≈ 66.3 µM) |  |  |  |  | 
O=C(N/N=C/c1cc(Cl)ccc1O)c1cccnc1 [AR10] | 62 (≈ 225 µM) | 8 (≈ 29 µM) | 8 (≈ 29 µM) | 4 (≈ 14.5 µM) |  |  |  |  | 
O=C(NN=Cc1ccccc1O)c1ccncc1 [AR13] |  |  |  |  | 31 (≈ 128 µM) | 4 (≈ 16.6 µM) | 16 (≈ 66.3 µM) | 8 (≈ 33.2 µM) | 
O=C(NN=Cc1cc(Cl)ccc1O)c1ccncc1 [AR16] |  |  |  |  | 125 (≈ 453 µM) | 16 (≈ 58 µM) | 16 (≈ 58 µM) | 31 (≈ 112 µM) | 
O=C(NN=Cc1ccccn1)c1ccc[n+]([O-])c1 [AR38] |  |  |  |  | 125 (≈ 516 µM) | 62 (≈ 256 µM) | 125 (≈ 516 µM) | 125 (≈ 516 µM) | 
O=C(NN=Cc1ccccn1)c1ccccc1O [AR32] |  |  |  |  | 62 (≈ 257 µM) | 31 (≈ 128 µM) | 4 (≈ 16.6 µM) | 31 (≈ 128 µM) | 
COc1ccc(O)c(/C=N/NC(=O)c2ccc[n+]([O-])c2)c1 [AR25] | 31 (≈ 108 µM) | 62 (≈ 216 µM) | 4 (≈ 13.9 µM) | 16 (≈ 55.7 µM) |  |  |  |  | 
Cc1ccc(O)c(C=NNC(=O)c2ccncc2)c1 [AR14] |  |  |  |  | 31 (≈ 121 µM) | 16 (≈ 62.7 µM) | 31 (≈ 121 µM) | 4 (≈ 15.7 µM) | 
O=C(N/N=C/c1cc(Cl)ccc1O)c1ccc[n+]([O-])c1 [AR26] | 31 (≈ 106 µM) | 31 (≈ 106 µM) | 4 (≈ 13.7 µM) | 16 (≈ 54.9 µM) |  |  |  |  | 
O=C(NN=Cc1ccccn1)c1cccnc1 [AR35] |  |  |  |  | 62 (≈ 274 µM) | 62 (≈ 274 µM) | 125 (≈ 553 µM) | 125 (≈ 553 µM) | 
O=C(NN=Cc1ccccc1O)c1ccc[n+]([O-])c1 [AR23] |  |  |  |  | 31 (≈ 121 µM) | 31 (≈ 121 µM) | 16 (≈ 62.2 µM) | 31 (≈ 121 µM) | 
COc1ccc(O)c(/C=N/NC(=O)c2ccccn2)c1 [AR3, (E)-N′-(2-Hydroxy-5-methoxybenzylidene)picolinohydrazide] | 31 (≈ 114 µM) | 8 (≈ 29.5 µM) | 1 (≈ 3.69 µM) | 4 (≈ 14.7 µM) |  |  |  |  | 
O=C(NN=Cc1cc(Br)ccc1O)c1cccnc1O [AR22] |  |  |  |  |  |  | 0.5 (≈ 1.49 µM) |  | one of the most potent compounds
